Assays:
Axl = target: T1, Axl (Homo sapiens, UniProt P30530); assay: Cellular Axl inhibition ELISA (p-Axl, Gas6-induced) using H1299 cells; format: cell-based; design: especially H1299 cell endogenously expresses Axl; endogenous in cells; host or cells: H1299; conditions: read-out: Cellular Axl activity by H1299 Elisa (IC50)
T1 sequence (P30530 26-894): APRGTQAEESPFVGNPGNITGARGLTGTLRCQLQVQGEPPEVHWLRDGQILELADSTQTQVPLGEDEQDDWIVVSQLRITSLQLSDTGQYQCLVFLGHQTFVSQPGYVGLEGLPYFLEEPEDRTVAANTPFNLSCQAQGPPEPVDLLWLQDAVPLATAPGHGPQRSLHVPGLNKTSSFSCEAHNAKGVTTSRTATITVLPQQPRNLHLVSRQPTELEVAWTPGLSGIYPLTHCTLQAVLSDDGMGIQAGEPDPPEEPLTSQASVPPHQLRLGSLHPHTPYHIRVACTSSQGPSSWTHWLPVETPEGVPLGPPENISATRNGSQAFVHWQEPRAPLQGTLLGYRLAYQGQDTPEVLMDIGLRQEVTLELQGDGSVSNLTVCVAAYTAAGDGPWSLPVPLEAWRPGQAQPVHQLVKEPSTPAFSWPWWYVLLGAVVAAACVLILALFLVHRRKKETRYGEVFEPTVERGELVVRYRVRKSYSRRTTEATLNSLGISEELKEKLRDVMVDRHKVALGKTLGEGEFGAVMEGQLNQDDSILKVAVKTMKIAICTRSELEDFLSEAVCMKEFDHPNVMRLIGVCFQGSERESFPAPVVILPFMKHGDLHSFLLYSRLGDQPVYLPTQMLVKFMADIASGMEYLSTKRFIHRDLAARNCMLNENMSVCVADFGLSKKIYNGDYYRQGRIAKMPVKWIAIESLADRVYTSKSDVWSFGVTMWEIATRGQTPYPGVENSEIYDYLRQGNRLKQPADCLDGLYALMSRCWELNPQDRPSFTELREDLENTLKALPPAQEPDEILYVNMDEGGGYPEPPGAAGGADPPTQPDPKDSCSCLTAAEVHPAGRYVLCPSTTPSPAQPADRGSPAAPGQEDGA
Outline: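 H1299 cells, seeded overnight, exposed 24 h at 37 °C to 10-point 3-fold compound dilutions, then stimulated with 200 ng/ml human Gas6 (final) for 1 h. Lysates assayed for p-Axl by sandwich ELISA with HRP/TMB, absorbance 450 nm; IC50 by sigmoidal dose-response fit.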

CSF1R (M-NFS-60 cells) = assay: Cell Titer-Glo viability assay using M-NFS-60 cells; format: cell-based; conditions: Mus musculus, read-out: Cellular CSF1R activity by M-NFS-60 viability assay (IC50 activity range)
Outline: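 M-NFS-60 cells grown with 62 ng/ml recombinant human M-CSF, seeded at 2×10^5 cells/well and incubated at 37 °C/5% CO2. Compounds given as 3-fold serial dilutions (10 doses); viability read by CellTiter-Glo luminescence, sigmoidal dose-response fit.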

Compound | IC50 (Axl) [µM] | IC50 (CSF1R (M-NFS-60 cells)) [µM]
COc1cc2nccc(Oc3ccc(NC(=O)c4nn(C5CCNC5)cc4OCC(F)(F)F)cc3C)c2cc1OC (centres unmarked) [Compound 81] | ≥ 1 | 1 to 10
COc1cc2nccc(Oc3ccc(NC(=O)c4nn(CCN)cc4OCC(F)(F)F)cc3C)c2cc1OC [Compound 82] | ≥ 1 | 1 to 10
COc1cc2nccc(Oc3ccc(NC(=O)c4nn(CCC5CCCC5)cc4OCC(F)(F)F)nc3)c2cc1OC [Compound 93] | < 0.5 | < 1
COc1cc2nccc(Oc3ccc(NC(=O)c4nn(C5CCOC5)cc4OCC(F)(F)F)c(F)c3)c2cc1OC (centres unmarked) [Compound 77] | < 0.5 | 1 to 10
COc1cc2nccc(Oc3ccc(NC(=O)c4nn(CCN)cc4OCC(F)(F)F)cc3)c2cc1OC [Compound 88] | 0.5 to 1 | 1 to 10
COc1cc2nccc(Oc3ccc(NC(=O)c4nn(CC(C)O)cc4OCC(F)(F)F)cc3)c2cc1OC (centres unmarked) [Compound 89] | < 0.5 | 1 to 10
COc1cc2nccc(Oc3ccc(NC(=O)c4nn(C5CCOC5)cc4OCC(F)(F)F)cc3C)c2cc1OC (centres unmarked) [Compound 85] | < 0.5 | 1 to 10
COc1cc2nccc(Oc3ccc(NC(=O)c4nn(CC5COC5)cc4OCC(F)(F)F)c(F)c3)c2cc1OC [Compound 95] | < 0.5 | 1 to 10
COCCn1cc(OCC(F)(F)F)c(C(=O)Nc2ccc(Oc3ccnc4cc(OC)c(OC)cc34)c(C)c2)n1 [Compound 84] | < 0.5 | 1 to 10

The next lines start with results.

IC50 (Axl) [µM] | Compound | IC50 (CSF1R (M-NFS-60 cells)) [µM]
< 0.5 | COc1cc2nccc(Oc3ccc(NC(=O)c4nn(C5CCN(C)C5)cc4OCC(F)(F)F)nc3)c2cc1OC (centres unmarked) [Compound 91] | < 1
< 0.5 | COc1cc2nccc(Oc3ccc(NC(=O)c4nn(CC(C)C)cc4OCC(F)(F)F)cc3)c2cc1OC [Compound 87] | 1 to 10
< 0.5 | COc1cc2nccc(Oc3ccc(NC(=O)c4nn(C5CCOCC5)cc4OCC(F)(F)F)nc3)c2cc1OC [Compound 90] | < 1
< 0.5 | COc1cc2nccc(Oc3ccc(NC(=O)c4nn(C5CCNC5)cc4OCC(F)(F)F)cc3F)c2cc1OC (centres unmarked) [Compound 78] | 1 to 10
< 0.5 | COc1cc2nccc(Oc3ccc(NC(=O)c4nn(C5CCNC5)cc4OCC(F)(F)F)cc3)c2cc1OC (centres unmarked) [Compound 86] | 1 to 10
< 0.5 | COc1cc2nccc(Oc3ccc(NC(=O)c4nn(C5CCN(C)C5)cc4OCC(F)(F)F)c(F)c3)c2cc1OC (centres unmarked) [Compound 94] | 1 to 10
< 0.5 | COc1cc2nccc(Oc3ccc(NC(=O)c4nn(CC(C)O)cc4OCC(F)(F)F)cc3F)c2cc1OC (centres unmarked) [Compound 80] | 1 to 10
< 0.5 | COc1cc2nccc(Oc3ccc(NC(=O)c4nn(CC(C)O)cc4OCC(F)(F)F)cc3C)c2cc1OC (centres unmarked) [Compound 83] | 1 to 10
< 0.5 | COc1cc2nccc(Oc3ccc(NC(=O)c4nn(C5CC5)cc4OCC(F)(F)F)nc3)c2cc1OC [Compound 5] | < 1
< 0.5 | COc1cc2nccc(Oc3ccc(NC(=O)c4nn(CCN)cc4OCC(F)(F)F)cc3F)c2cc1OC [Compound 79] | 1 to 10

— patent US12162858B2, “Quinoline derivatives as inhibitors of AXL/MER RTK and CSF1R” (QURIENT CO., LTD., priority 2018, dated 2024)
